Experimental data reported in PubChem BioAssay (NCI).
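Compound exposure: 48 hours, 5 concentrations, 96-well plates. GI50 is the concentration that inhibits growth by half. TGI denotes the concentration required for complete inhibition of growth.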

Assays:
Assay in all cases: growth of human tumour cells (NCI), 48 h
[1] = test system: 786-0 renal
[2] = test system: A498 renal
[3] = test system: A549 NSCLC
[4] = test system: ACHN renal
[5] = test system: BT-549 breast
[6] = test system: CAKI-1 renal
[7] = test system: CCRF-CEM leukemia
[8] = test system: COLO 205 colon
[9] = test system: DU-145 prostate
[10] = test system: EKVX NSCLC
[11] = test system: HCC-2998 colon
[12] = test system: HCT-116 colon
[13] = test system: HCT-15 colon
[14] = test system: HL-60(TB) leukemia
[15] = test system: HOP-62 NSCLC
[16] = test system: HOP-92 NSCLC
[17] = test system: HS 578T breast
[18] = test system: HT29 colon
[19] = test system: IGROV1 ovarian
[20] = test system: K-562 leukemia
[21] = test system: KM12 colon
[22] = test system: LOX IMVI melanoma
[23] = test system: M14 melanoma
[24] = test system: MALME-3M melanoma
[25] = test system: MCF7 breast
[26] = test system: MDA-MB-435
[27] = test system: MDA-MB-468 breast
[28] = test system: MOLT-4 leukemia
[29] = test system: NCI-H226 lung
[30] = test system: NCI-H23 lung
[31] = test system: NCI-H460 lung
[32] = test system: NCI-H522 lung
[33] = test system: NCI/ADR-RES ovarian
[34] = test system: OVCAR-3 ovarian
[35] = test system: OVCAR-4 ovarian
[36] = test system: OVCAR-5 ovarian
[37] = test system: OVCAR-8 ovarian
[38] = test system: PC-3 prostate
[39] = test system: RPMI-8226 leukemia
[40] = test system: RXF 393 renal
[41] = test system: SF-268 CNS
[42] = test system: SF-295 CNS
[43] = test system: SF-539 CNS
[44] = test system: SK-MEL-28 melanoma
[45] = test system: SK-MEL-5 melanoma
[46] = test system: SK-OV-3 ovarian
[47] = test system: SN12C renal
[48] = test system: SNB-19 CNS
[49] = test system: SR leukemia
[50] = test system: SW-620 colon
[51] = test system: T-47D breast
[52] = test system: TK-10 renal
[53] = test system: U251 CNS
[54] = test system: UACC-257 melanoma
[55] = test system: UACC-62 melanoma
[56] = test system: MDA-MB-231 breast
[57] = test system: SK-MEL-2 melanoma
[58] = test system: SNB-75 CNS
[59] = test system: UO-31 renal

C[C@H]1[C@@H](CC(=O)N[C@@H](Cc2coc3ccccc23)B(O)O)O[C@@H]2OC3(C)CC[C@H]4[C@H](C)CC[C@@H]1[C@@]24O3
GI50 [1]: 4.24 µM | TGI [1]: 19.2 µM | GI50 [2]: 4.45 µM | TGI [2]: 16.6 µM | GI50 [3]: 3.66 µM | TGI [3]: 18.7 µM | GI50 [4]: 3.08 µM | TGI [4]: > 100 µM | GI50 [5]: 1.64 µM | TGI [5]: 4.2 µM | GI50 [6]: 4.2 µM | TGI [6]: 23.7 µM | GI50 [7]: 2.45 µM | TGI [7]: 12.2 µM | GI50 [8]: 3.07 µM | TGI [8]: 12.2 µM | GI50 [9]: 8.58 µM | TGI [9]: 51.6 µM | GI50 [10]: 5.01 µM | TGI [10]: 23.6 µM | GI50 [11]: 2.22 µM | TGI [11]: 4.45 µM | GI50 [12]: 2.19 µM | TGI [12]: 5.56 µM | GI50 [13]: 2220 nM | TGI [13]: 5.88 µM | GI50 [14]: 2250 nM | TGI [14]: 6.84 µM | GI50 [15]: 2.8 µM | TGI [15]: 12.3 µM | GI50 [16]: 3.88 µM | TGI [16]: 15.4 µM | GI50 [17]: 2.56 µM | TGI [17]: 9.97 µM | GI50 [18]: 2.27 µM | TGI [18]: 5.36 µM | GI50 [19]: 4.03 µM | TGI [19]: 18.9 µM | GI50 [20]: 3.25 µM | TGI [20]: 22.9 µM | GI50 [21]: 3.42 µM | TGI [21]: 11.6 µM | GI50 [22]: 1830 nM | TGI [22]: 4.34 µM | GI50 [23]: 2.1 µM | TGI [23]: 5.96 µM | GI50 [24]: 1.88 µM | TGI [24]: 6.77 µM | GI50 [25]: 3.49 µM | TGI [25]: 18.5 µM | GI50 [26]: 2.06 µM | TGI [26]: 5.03 µM | GI50 [27]: 1930 nM | TGI [27]: 4.49 µM | GI50 [28]: 1.48 µM | TGI [28]: 6.61 µM | GI50 [29]: 1.3 µM | TGI [29]: 2840 nM | GI50 [30]: 3.16 µM | TGI [30]: 14.6 µM | GI50 [31]: 3.89 µM | TGI [31]: 15.2 µM | GI50 [32]: 1820 nM | TGI [32]: 4.26 µM | GI50 [33]: 11.6 µM | TGI [33]: 26.3 µM | GI50 [34]: 3.07 µM | TGI [34]: 11.1 µM | GI50 [35]: 6.09 µM | TGI [35]: > 100 µM | GI50 [36]: 2920 nM | TGI [36]: 13.7 µM | GI50 [37]: 9.53 µM | TGI [37]: 24.7 µM | GI50 [38]: 5.47 µM | TGI [38]: 40.1 µM | GI50 [39]: 1.23 µM | TGI [39]: 5.65 µM | GI50 [40]: 1.53 µM | TGI [40]: 3.47 µM | GI50 [41]: 4.67 µM | TGI [41]: > 100 µM | GI50 [42]: 1.92 µM | TGI [42]: 6.27 µM | GI50 [43]: 1.92 µM | TGI [43]: 4.05 µM | GI50 [44]: 2.92 µM | TGI [44]: 11.5 µM | GI50 [45]: 2.29 µM | TGI [45]: 5.48 µM | GI50 [46]: 5.37 µM | TGI [46]: 19.2 µM | GI50 [47]: 4.07 µM | TGI [47]: 15.9 µM | GI50 [48]: 6.28 µM | TGI [48]: > 100 µM | GI50 [49]: 1480 nM | TGI [49]: 5.16 µM | GI50 [50]: 2.69 µM | TGI [50]: 11.5 µM | GI50 [51]: 3.3 µM | TGI [51]: 16.5 µM | GI50 [52]: 2710 nM | TGI [52]: 8.86 µM | GI50 [53]: 3.78 µM | TGI [53]: 15.4 µM | GI50 [54]: 1.85 µM | TGI [54]: 4.19 µM | GI50 [55]: 1.89 µM | TGI [55]: 4.26 µM

FC(F)(F)c1cc2c(Cl)ncnc2n1CCN1CCCCC1
GI50 [1]: 39.8 µM | TGI [1]: > 100 µM | GI50 [2]: > 100 µM | TGI [2]: > 100 µM | GI50 [3]: 80.1 µM | TGI [3]: > 100 µM | GI50 [4]: 6.46 µM | TGI [4]: > 100 µM | GI50 [5]: 15 µM | TGI [5]: 29.8 µM | GI50 [6]: 25.3 µM | TGI [6]: > 100 µM | GI50 [7]: 11 µM | TGI [7]: > 100 µM | GI50 [8]: 52.7 µM | TGI [8]: > 100 µM | GI50 [9]: 30.5 µM | TGI [9]: > 100 µM | GI50 [10]: 16.3 µM | TGI [10]: 85.5 µM | GI50 [11]: 4.11 µM | TGI [11]: 14.3 µM | GI50 [12]: 4.86 µM | TGI [12]: 20.3 µM | GI50 [13]: 3160 nM | TGI [13]: 12.8 µM | GI50 [14]: 2070 nM | TGI [14]: 7.47 µM | GI50 [15]: 38.1 µM | TGI [15]: > 100 µM | GI50 [16]: 19.7 µM | TGI [16]: 53.8 µM | GI50 [17]: 16.4 µM | TGI [17]: 60 µM | GI50 [18]: 21.1 µM | TGI [18]: 81.3 µM | GI50 [19]: 2.98 µM | TGI [19]: 10.3 µM | GI50 [20]: 2.91 µM | TGI [20]: > 100 µM | GI50 [21]: 29.8 µM | TGI [21]: > 100 µM | GI50 [22]: 1690 nM | TGI [22]: 3.11 µM | GI50 [23]: 12.8 µM | TGI [23]: 33.4 µM | GI50 [24]: 19 µM | TGI [24]: 55.4 µM | GI50 [25]: 19.6 µM | TGI [25]: 76.5 µM | GI50 [56]: 5.47 µM | TGI [56]: 19.7 µM | GI50 [26]: 13.1 µM | TGI [26]: 29.9 µM | GI50 [27]: 3020 nM | TGI [27]: 9.43 µM | GI50 [28]: 10.5 µM | TGI [28]: 55.2 µM | GI50 [29]: 60.6 µM | TGI [29]: > 100000 nM | GI50 [30]: 13.9 µM | TGI [30]: 39.3 µM | GI50 [31]: 18.3 µM | TGI [31]: 50.6 µM | GI50 [33]: 24 µM | TGI [33]: 64.8 µM | GI50 [34]: 17.6 µM | TGI [34]: 35.5 µM | GI50 [35]: 28.5 µM | TGI [35]: > 100 µM | GI50 [36]: > 100000 nM | TGI [36]: > 100 µM | GI50 [37]: 12.5 µM | TGI [37]: 32.8 µM | GI50 [38]: 15.2 µM | TGI [38]: 47.9 µM | GI50 [39]: 31.5 µM | TGI [39]: > 100 µM | GI50 [40]: 15.6 µM | TGI [40]: 40.9 µM | GI50 [41]: 16 µM | TGI [41]: 38.6 µM | GI50 [42]: 22.6 µM | TGI [42]: 86.3 µM | GI50 [43]: 17.1 µM | TGI [43]: 36.2 µM | GI50 [57]: 16.5 µM | TGI [57]: 32.9 µM | GI50 [44]: 16 µM | TGI [44]: 37.7 µM | GI50 [45]: 14.9 µM | TGI [45]: 31.1 µM | GI50 [46]: 52.3 µM | TGI [46]: > 100 µM | GI50 [47]: 19.4 µM | TGI [47]: > 100 µM | GI50 [48]: 15.2 µM | TGI [48]: 31.3 µM | GI50 [58]: 10.5 µM | TGI [58]: 22.5 µM | GI50 [49]: 3280 nM | TGI [49]: 26.1 µM | GI50 [50]: 11.2 µM | TGI [50]: 28.7 µM | GI50 [51]: 21.9 µM | TGI [51]: > 100 µM | GI50 [52]: > 100000 nM | TGI [52]: > 100 µM | GI50 [53]: 14.1 µM | TGI [53]: 34.9 µM | GI50 [54]: 11.8 µM | TGI [54]: 30.4 µM | GI50 [55]: 12.2 µM | TGI [55]: 30.5 µM | GI50 [59]: 1740 nM | TGI [59]: 3.58 µM

COc1c(C(N)=O)cc(-c2ccc(Cl)cc2)cc1-c1ccc(S(N)(=O)=O)cc1
GI50 [27]: 4330 nM | TGI [27]: 11.1 µM

CCOC(=O)C1=C(Nc2ccc(OC)cc2)C(N)=NC1=N
GI50 [27]: 474 nM | TGI [27]: > 100 µM

N#C/C(=C\c1ccc[nH]1)c1cc(-c2ccc(Cl)cc2)nn1-c1ccccc1
GI50 [27]: 269 nM | TGI [27]: 2.23 µM

CC1Cc2c(Cl)ncnc2N(C)c2ccccc21 (stereo not drawn)
GI50 [27]: 1600 nM | TGI [27]: 6.81 µM

CCCCCCCCN(CCCCCCCC)CC(O)c1cc(-c2ccccc2)nc2ccc(OC)cc12 (stereo not drawn)
GI50 [27]: 39200 nM | TGI [27]: > 100 µM

COc1cc2ncnc(Oc3ccc(NC(=O)Nc4ccc(CN5CCOCC5)c(C(F)(F)F)c4)c4ccccc34)c2cc1OC
GI50 [27]: 249 nM | TGI [27]: 1.85 µM

COc1ccc2c3ccnc(C(F)(F)F)c3n(CCCCN)c2c1
GI50 [27]: 3220 nM | TGI [27]: 13.4 µM

COc1nn(C)cc1Nc1nccc(-c2c[nH]c3c(NC(=O)[C@@H](C)N4CCN(C)CC4)cccc23)n1
GI50 [27]: 25000 nM | TGI [27]: 67.8 µM

COC(=O)Nc1nc2ccc(C(=O)c3cccc(I)c3)cc2[nH]1
GI50 [27]: 59.8 nM | TGI [27]: 2.14 µM

Cc1nnc(N/N=C/c2ccc([N+](=O)[O-])o2)[nH]c1=O
GI50 [27]: 749 nM | TGI [27]: 12.2 µM

NC(=Nc1ccccc1)N/N=C/c1c[nH]c2ccccc12
GI50 [27]: 501 nM | TGI [27]: 1.87 µM
